Drawing on patent US8501238B2, “Anti-infective agents and uses thereof” (priority 2007, dated 2013), this text covers EC50, IC50 and melting point for 20 molecules.

Data set [1] has as its system genotype 1a-H77 subgenomic replicon cell line. The experiment in a line: microbe, parasite or virus in culture. Type of data set: cell-based, HCV. As to conditions: Hepatitis C virus, 72 h, read-out: EC50 1a.
Data set [2] has as its target T1, HCV polymerase 1B (Δ21 NS5B) (Hepatitis C virus genotype 1b, UniProt P26663).
T1 construct: 20 to 50nM Δ21 NS5B
Nature of the data set: biochemical. In short, it runs like this:
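Inhibitor pre-incubated 15 min at room temperature with Δ21 NS5B (strain BK or H77, 20–50 nM), 60–125 μM GTP, 2 mM MnCl2, pH 7.4. Reaction started with 20 μM CTP, 20 μM ATP, 1 μM 3H-UTP and 5 nM template RNA, run 2–4 h at room temperature. Spermine-precipitated RNA filter-captured and scintillation-counted; IC50 from tight-binding equation fit.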

Data set [3] relates to genotype 1b-Con1 subgenomic replicon cell line. The experiment in a line: microbe, parasite or virus in culture. The class given is cell-based, HCV. As to conditions: Hepatitis C virus, 72 h, read-out: EC50 1b.
Data set [4] deals with T2, HCV polymerase 1A (Δ21 NS5B) (Hepatitis C virus genotype 1a, UniProt P27958).
T2 construct: 20 to 50nM Δ21 NS5B
Nature of the data set: HCV Polymerase Inhibition Assay (1a). Type of data set: biochemical. In short, it runs like this: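 Δ21 NS5B reactions contained 20 μM CTP, 20 μM ATP, 1 μM ³H-UTP and 5 nM template RNA and ran for 2–4 h at room temperature. RNA was then spermine-precipitated, filter-captured and counted by scintillation. IC50 came from a tight-binding (Morrison) nonlinear fit of retained cpm against inhibitor concentration.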

Molecules are shown by their SMILES. pEC50, pIC50: −log10 of the molar value.

T1 sequence (P26663 2420-2989, stated change not applied): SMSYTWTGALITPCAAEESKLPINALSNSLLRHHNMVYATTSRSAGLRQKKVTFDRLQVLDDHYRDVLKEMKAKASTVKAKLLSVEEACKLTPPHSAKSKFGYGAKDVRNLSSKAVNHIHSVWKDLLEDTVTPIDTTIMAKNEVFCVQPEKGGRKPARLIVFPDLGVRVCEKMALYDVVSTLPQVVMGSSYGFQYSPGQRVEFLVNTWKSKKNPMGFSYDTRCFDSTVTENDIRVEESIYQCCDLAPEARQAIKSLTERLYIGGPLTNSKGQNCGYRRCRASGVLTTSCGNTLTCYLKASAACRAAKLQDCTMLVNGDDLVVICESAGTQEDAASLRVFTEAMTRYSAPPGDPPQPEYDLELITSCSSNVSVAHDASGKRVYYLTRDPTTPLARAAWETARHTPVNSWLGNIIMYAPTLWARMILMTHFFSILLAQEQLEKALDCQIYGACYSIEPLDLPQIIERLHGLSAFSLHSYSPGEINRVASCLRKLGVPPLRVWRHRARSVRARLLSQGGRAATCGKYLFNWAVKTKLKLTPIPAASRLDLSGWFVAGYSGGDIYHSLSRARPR
T2 sequence (P27958 2421-2990, stated change not applied): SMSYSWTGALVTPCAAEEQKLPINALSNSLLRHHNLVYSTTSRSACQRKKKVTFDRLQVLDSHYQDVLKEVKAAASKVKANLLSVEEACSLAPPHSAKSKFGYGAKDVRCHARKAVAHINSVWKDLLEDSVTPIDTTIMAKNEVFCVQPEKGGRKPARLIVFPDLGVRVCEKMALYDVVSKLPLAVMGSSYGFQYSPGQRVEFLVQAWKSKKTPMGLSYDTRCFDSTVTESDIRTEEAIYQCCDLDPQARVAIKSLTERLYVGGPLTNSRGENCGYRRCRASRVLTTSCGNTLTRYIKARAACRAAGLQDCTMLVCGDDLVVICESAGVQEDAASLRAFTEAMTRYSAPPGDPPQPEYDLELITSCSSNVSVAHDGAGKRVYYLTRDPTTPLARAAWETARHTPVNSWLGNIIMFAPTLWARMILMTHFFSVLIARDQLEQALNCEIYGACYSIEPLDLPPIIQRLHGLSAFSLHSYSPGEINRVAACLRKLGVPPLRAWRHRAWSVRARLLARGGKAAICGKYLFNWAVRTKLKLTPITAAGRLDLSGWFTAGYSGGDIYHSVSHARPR

A word on the pEC50: it is the EC50 on a negative log10 scale, so that one unit is a factor of ten. Broadly, the pIC50 is the negative decadic logarithm of the IC50, by convention in mol/L. A higher pIC50 goes with a small IC50. The term melting point denotes the temperature, or range, at which the solid turns liquid. The molecule `CC(C)(C)c1cc(-n2ccc(=O)[nH]c2=O)cc(-c2ccc3cc(NS(C)(=O)=O)ccc3c2)c1Cl` [IB-L0-2.14, N-(6-(3-tert-butyl-2-chloro-5-(2,4-dioxo-3,4-dihydropyrimidin-1(2H)-yl)phenyl)naphthalen-2-yl)methanesulfonamide] returned a melting point above 280 °C. The negative-log EC50 (pEC50) in data set [1] was 6.00 to 7.00. In data set [2], this molecule had a pIC50 above 8.00. For the same molecule, in data set [3], the pEC50 is 7.00 to 8.00. Further, in data set [4], the pIC50 is above 8.00.

As to `COc1c(-c2ccsc2)cc(-n2ccc(=O)[nH]c2=O)cc1-c1ccc2cc(NS(C)(=O)=O)ccc2c1` [IB-L0-2.53, N-(6-(5-(2,4-dioxo-3,4-dihydropyrimidin-1(2H)-yl)-2-methoxy-3-(thiophen-3-yl)phenyl)naphthalen-2-yl)methanesulfonamide], the negative-log EC50 (pEC50) in data set [1] and in data set [3] was 7.00 to 8.00 each time. Besides, the pIC50 is 7.00 to 8.00 in data set [2] and above 8.00 in data set [4].

With `COc1c(-c2ccc3c(c2)/C(=N/NS(C)(=O)=O)CC3)cc(-n2ccc(=O)[nH]c2=O)cc1-c1ccco1` [IB-L0-2.55, (E)-N′-(6-(5-(2,4-dioxo-3,4-dihydropyrimidin-1(2H)-yl)-3-(furan-2-yl)-2-methoxyphenyl)-2,3-dihydro-1H-inden-1-ylidene)methanesulfonohydrazide], the negative logarithm of the EC50 (pEC50) in data set [1] was 7.00 to 8.00; in data set [3], above 8.00. For the same molecule, the negative-log IC50 (pIC50) in data set [2] was 7.00 to 8.00; in data set [4], above 8.00.

Regarding `COc1c(-c2ccc3cc(NS(C)(=O)=O)ccc3c2)cc(-n2ccc(=O)[nH]c2=O)cc1C(F)(F)F` [IB-L0-2.56, N-(6-(5-(2,4-dioxo-3,4-dihydropyrimidin-1(2H)-yl)-2-methoxy-3-(trifluoromethyl)phenyl)naphthalen-2-yl)methanesulfonamide], the negative-log EC50 (pEC50) is 6.00 to 7.00 in data set [1] and above 8.00 in data set [3]. Also, the pIC50 is 7.00 to 8.00 in data set [2] and above 8.00 in data set [4].

For `COc1c(I)cc(-n2ccc(=O)[nH]c2=O)cc1-c1ccc2cc(NS(C)(=O)=O)ccc2c1` [IB-L0-2.57, N-(6-(5-(2,4-dioxo-3,4-dihydropyrimidin-1(2H)-yl)-3-iodo-2-methoxyphenyl)naphthalen-2-yl)methanesulfonamide], the pEC50 in data set [1] was 6.00 to 7.00; in data set [3], 7.00 to 8.00. For the same molecule, the negative logarithm of the IC50 (pIC50) in data set [2] was 7.00 to 8.00; in data set [4] it was above 8.00.

`COc1c(-c2ccc3cc(NS(C)(=O)=O)ccc3c2)cc(-n2ccc(=O)[nH]c2=O)cc1-c1ccco1` [IB-L0-2.59, N-(6-(5-(2,4-dioxo-3,4-dihydropyrimidin-1(2H)-yl)-3-(furan-2-yl)-2-methoxyphenyl)naphthalen-2-yl)methanesulfonamide]: the pEC50 in data set [1] was 6.00 to 7.00; in data set [3] it was 7.00 to 8.00. Further, the pIC50 was 7.00 to 8.00 in data set [2] and above 8.00 in data set [4].

Take `COc1c(-c2ccc3cc(NS(C)(=O)=O)ccc3c2)cc(-n2ccc(=O)[nH]c2=O)cc1-c1cccs1` [IB-L0-2.61, N-(6-(5-(2,4-dioxo-3,4-dihydropyrimidin-1(2H)-yl)-2-methoxy-3-(thiophen-2-yl)phenyl)naphthalen-2-yl)methanesulfonamide]: the negative-log EC50 (pEC50) in data set [1] was 6.00 to 7.00; in data set [3] it was 7.00 to 8.00. Also, the pIC50 in data set [2] is 7.00 to 8.00; in data set [4], above 8.00.

With `COc1c(-c2ccoc2)cc(-n2ccc(=O)[nH]c2=O)cc1-c1ccc2cc(NS(C)(=O)=O)ccc2c1` [IB-L0-2.64, N-(6-(5-(2,4-dioxo-3,4-dihydropyrimidin-1(2H)-yl)-3-(furan-3-yl)-2-methoxyphenyl)naphthalen-2-yl)methanesulfonamide], the pEC50 was 6.00 to 7.00 in data set [1] and above 8.00 in data set [3]. The negative logarithm of the IC50 (pIC50) in data set [2] and in data set [4] was 7.00 to 8.00 in each case.

On to `COCC(C)(C)c1cc(-n2ccc(=O)[nH]c2=O)cc(-c2ccc3cc(NS(C)(=O)=O)ccc3c2)c1OC` [IB-L0-2.66, N-(6-(5-(2,4-dioxo-3,4-dihydropyrimidin-1(2H)-yl)-2-methoxy-3-(1-methoxy-2-methylpropan-2-yl)phenyl)naphthalen-2-yl)methanesulfonamide], for which the pEC50 in data set [1] was 6.00 to 7.00; in data set [3], 7.00 to 8.00. Further, the negative logarithm of the IC50 (pIC50) in data set [2] and in data set [4] was 7.00 to 8.00 throughout.

Take `COc1c(-c2ccc3cc(NS(C)(=O)=O)ccc3c2)cc(-n2ccc(=O)[nH]c2=O)cc1S(C)(=O)=O` [IB-L0-2.68, N-(6-(5-(2,4-dioxo-3,4-dihydropyrimidin-1(2H)-yl)-2-methoxy-3-(methylsulfonyl)phenyl)naphthalen-2-yl)methanesulfonamide]: the pEC50 in data set [1] was below 6.00; in data set [3], 6.00 to 7.00. The pIC50 in data set [2] and in data set [4] was 7.00 to 8.00 each time.

For `COc1c(Br)cc(-n2ccc(=O)[nH]c2=O)cc1-c1ccc2cc(NS(C)(=O)=O)ccc2c1` [IB-L0-2.69, N-(6-(3-bromo-5-(2,4-dioxo-3,4-dihydropyrimidin-1(2H)-yl)-2-methoxyphenyl)naphthalen-2-yl)methanesulfonamide], the pEC50 in data set [1] was 6.00 to 7.00; in data set [3] it was 7.00 to 8.00. The pIC50 in data set [2] and in data set [4] was 7.00 to 8.00 in each case.

For the molecule `COC(=O)C(C)(C)c1cc(-n2ccc(=O)[nH]c2=O)cc(-c2ccc3cc(NS(C)(=O)=O)ccc3c2)c1OC` [IB-L0-2.70, methyl 2-(5-(2,4-dioxo-3,4-dihydropyrimidin-1(2H)-yl)-2-methoxy-3-(6-(methylsulfonamido)naphthalen-2-yl)phenyl)-2-methylpropanoate], the results for the pEC50 in data set [1] and in data set [3] were below 6.00 and 6.00 to 7.00, respectively. In addition, the negative logarithm of the IC50 (pIC50) in data set [2] is 6.00 to 7.00; in data set [4], 7.00 to 8.00.

As for `COc1c(-c2ccccc2)cc(-n2ccc(=O)[nH]c2=O)cc1-c1ccc2cc(NS(C)(=O)=O)ccc2c1` [IB-L0-2.71, N-(6-(5-(2,4-dioxo-3,4-dihydropyrimidin-1(2H)-yl)-2-methoxy-biphenyl-3-yl)naphthalen-2-yl)methanesulfonamide], the values for the pEC50 in data set [1] and in data set [3] were 6.00 to 7.00 and 7.00 to 8.00, respectively. Further, the negative logarithm of the IC50 (pIC50) in data set [2] and in data set [4] was 6.00 to 7.00 each time.

Consider `COC(=O)c1cc(-n2ccc(=O)[nH]c2=O)cc(-c2ccc3cc(NS(C)(=O)=O)ccc3c2)c1OC` [IB-L0-2.72, methyl 5-(2,4-dioxo-3,4-dihydropyrimidin-1(2H)-yl)-2-methoxy-3-(6-(methylsulfonamido)naphthalen-2-yl)benzoate], for which the results for the pEC50 in data set [1] and in data set [3] were below 6.00 and 6.00 to 7.00, respectively. The negative-log IC50 (pIC50) in data set [2] and in data set [4] was 6.00 to 7.00 throughout.

Take `COc1c(-c2ccc3cc(NS(C)(=O)=O)ccc3c2)cc(-n2ccc(=O)[nH]c2=O)cc1-c1ccc(C)s1` [IB-L0-2.73, N-(6-(5-(2,4-dioxo-3,4-dihydropyrimidin-1(2H)-yl)-2-methoxy-3-(5-methylthiophen-2-yl)phenyl)naphthalen-2-yl)methanesulfonamide]: the negative logarithm of the EC50 (pEC50) in data set [1] and in data set [3] was 6.00 to 7.00 in each case. For the same molecule, the pIC50 in data set [2] and in data set [4] was 6.00 to 7.00 throughout.

Take `COc1c(-c2cccc(Cl)c2)cc(-n2ccc(=O)[nH]c2=O)cc1-c1ccc2cc(NS(C)(=O)=O)ccc2c1` [IB-L0-2.74, N-(6-(3′-chloro-5-(2,4-dioxo-3,4-dihydropyrimidin-1(2H)-yl)-2-methoxybiphenyl-3-yl)naphthalen-2-yl)methanesulfonamide]: the results for the pEC50 in data set [1] and in data set [3] were below 6.00 and 6.00 to 7.00, respectively. Moreover, the pIC50 in data set [2] and in data set [4] was 6.00 to 7.00 each time.

For the molecule `COc1c(NS(C)(=O)=O)cc(-n2ccc(=O)[nH]c2=O)cc1-c1ccc2cc(NS(C)(=O)=O)ccc2c1` [IB-L0-2.75, N-(5-(2,4-dioxo-3,4-dihydropyrimidin-1(2H)-yl)-2-methoxy-3-(6-(methylsulfonamido)naphthalen-2-yl)phenyl)methanesulfonamide], the pEC50 in data set [1] and in data set [3] was below 6.00 throughout. For the same molecule, the pIC50 in data set [2] is below 6.00; in data set [4], 6.00 to 7.00.

In the case of `COc1c(-c2ccc3cc(NS(C)(=O)=O)ccc3c2)cc(-n2ccc(=O)[nH]c2=O)cc1C(C)(C)C(=O)O` [IB-L0-2.77, 2-(5-(2,4-dioxo-3,4-dihydropyrimidin-1(2H)-yl)-2-methoxy-3-(6-(methylsulfonamido)naphthalen-2-yl)phenyl)-2-methylpropanoic acid], the melting point was above 300 °C. This molecule gave a pIC50 in data set [2] below 6.00. This molecule had a negative-log IC50 (pIC50) in data set [4] below 6.00.

Molecule `COc1c(C#C[Si](C)(C)C)cc(-n2ccc(=O)[nH]c2=O)cc1-c1ccc2cc(NS(C)(=O)=O)ccc2c1` [IB-L0-2.78, N-(6-(5-(2,4-dioxo-3,4-dihydropyrimidin-1(2H)-yl)-2-methoxy-3-((trimethylsilyl)ethynyl)phenyl)naphthalen-2-yl)methanesulfonamide] showed a melting point of 175 to 178 °C. The molecule further showed a negative-log IC50 (pIC50) in data set [2] below 6.00. Moreover, in data set [4], the pIC50 was below 6.00.

As for `COc1c(N2Cc3ccc(NS(C)(=O)=O)cc3C2)cc(-n2ccc(=O)[nH]c2=O)cc1C(C)(C)C` [IB-L0-2.79, N-(2-(3-tert-butyl-5-(2,4-dioxo-3,4-dihydropyrimidin-1(2H)-yl)-2-methoxyphenyl)isoindolin-5-yl)methanesulfonamide], the negative logarithm of the EC50 (pEC50) in data set [1] and in data set [3] was 6.00 to 7.00 each time. In addition, the pIC50 in data set [2] and in data set [4] was 7.00 to 8.00 throughout.
